# Reference: publication PMC3558502, “Acaricide, Fungicide and Drug Interactions in Honey Bees (Apis mellifera)” (PLoS ONE, 2013)
# Entries after “also recorded” stand apart in the source; their conditions may differ. Where a name gives a salt, the structure may show the parent alone. Read-outs that look alike come from different tables or passages of the source.
# How the values were obtained:
# honey bees = assay: Estimated daily exposure and margin of safety of acaricide formulations; set-up: species or system Apis mellifera; conditions: LD10 divided by estimated daily dose
# Source text: High sublethal doses were deliberately chosen as pre-treatments to make the magnitude of any interactive effect between the pre-treatment and acaricide as large as possible. However, to determine the hazard posed by acaricide interactions in bee hives, the actual exposure bees receive when treated with formulated acaricides must be considered. […] The LD10 can be determined from the fitted dose response lines (Table S1). The daily dose can be estimated by first determining the amount of active ingredient present in each acaricide formulation, correcting this value by the amount of active ingredient available for uptake by the bees (e.g. 10% of the total acaricide content in strip formulations is taken up by bees, [50]) and dividing this quantity by the number of days the acaricide formulation is present in the hive. The estimated daily dose calculated in this way can be validated using published pesticide residue data, [51].
# Apis mellifera = conditions: cited from earlier work
# [1] = tested on: honey bees (Apis mellifera); assay: Lethal dose bioassay: topical sublethal pre-treatment (acaricide, fungicide or enzyme inhibitor), then topical acaricide dose series, 2009; conditions: for interactive effect between pre-treatment and acaricide toxicity (in words): 2009 topical pre-treatments, partner named in the value; for LD10: from fitted dose-response lines, control pre-treatment, 2009 (Table S1)
# Procedure: Bees were first treated with a sublethal dose of either an acaricide, a fungicide, an antimicrobial drug, or an enzyme inhibitor. Bees were then treated with a range of lethal doses of an acaricide to estimate the dose-response curve. […] We tested 25 of the 6×6 possible acaricide-acaricide combinations, 24 of the 6×5 fungicide-acaricide combinations, 15 of the 6×3 antimicrobial-acaricide combinations and 9 of the 6×3 enzyme inhibitor-acaricide combinations. […] The fungicides propiconazole, fenbuconazole, metconazole and myclobutanil were tested in combination with a single acaricide, tau-fluvalinate.
# (§1) Frames of late-stage brood were collected from these colonies and placed in a dark, humid incubator (Darwin Chambers Co., St. Louis, MO, model H024) at 34°C. Newly emerged adults were brushed from frames daily into screened wooden cages (21×14×12 cm) and weighed as a group to estimate the number of bees. Each cohort of 200–800 bees was provisioned with 1∶1 (w/w) granulated sugar dissolved in water and held for 3–4 days in the incubator.
# Each treatment series was conducted using 3–4 day-old adult worker bees divided into 8–13 subgroups of 20 bees each. Bees were narcotized with carbon dioxide and each subgroup was placed in a separate wax-coated paper cup (177 cm^3; Solo S306, Highland Park, IL) covered with cotton cheesecloth and secured with two rubber bands. A maximum sublethal pre-treatment of an acaricide, fungicide, enzyme inhibitor, or solvent control, was then applied to bees in all subgroups. […] Sublethal doses used as pre-treatment for acaricides were determined in preliminary bioassays or previous studies and corresponded to doses less than or near the LD10 values determined in the current experiment. […] All doses were delivered topically in 1 µl of acetone and applied to the thoracic notum using a 50 µl syringe fitted in a repeating dispenser (Hamilton PB-600, Reno, NV). A control pre-treatment consisting of 1 µl of pure acetone was also included.
# (§2) Groups of pre-treated bees were allowed to recover for 1 h to minimize mortality due to extended carbon dioxide anaesthetization. Each subgroup of approximately 20 bees, of the 8–13 dose-groups in the bioassay, was then anaesthetized again and treated topically with either an acetone solvent control or one of a range of 7–12 acaricide doses, including doses eliciting 0% and 100% mortality, and at least three doses causing intermediate mortality. After treatment sucrose water was provided to groups of treated bees through a punctured 1.5 ml microcentrifuge tube following dosing, and bees were returned to the 34°C incubator. […] Immobile bees were scored as dead. […] At least three replicate treatment series were performed for each combination of pre-treatment and acaricide. Separately diluted acaricide dose series and bees taken from different colonies were used for each replicate treatment.
# (§3) Lines were fitted to dose-mortality data on a log-probit scale for each pretreatment-acaricide combination using ‘glm’ in the R statistical package. […] Interactive effects between acaricides and the various pre-treatments were determined with pairwise tests comparing the dose-response lines for bees receiving pre-treatments with bees receiving a control pre-treatment using a test analogous to ANCOVA [26]. The full model, which includes the dose of acaricide as a covariate, pre-treatment as a categorical factor and the interaction between acaricide dose and pre-treatment, was compared with two simplified models (Figure 3). A process of model simplification was undertaken in which the explanatory power of model terms was assessed by reference to the likelihood ratio [38]. The first simplified model lacks the interaction term and tests the interaction between pre-treatment and acaricide dose, essentially testing for differences in the slope of the two dose-response lines (also known as a test of the “hypothesis of parallelism” [26]).
# [2] = tested on: honey bees (Apis mellifera); assay: Lethal dose bioassay: antimicrobial drugs fed in sucrose syrup, then topical acaricide dose series, 2010; conditions: for interactive effect between antimicrobial pre-treatment and acaricide toxicity (in words): 2010 oral pre-treatments, partner named in the value
# Procedure: as §1, §2, §3
# [3] = tested on: honey bees (Apis mellifera); assay: Lethal dose bioassay: tau-fluvalinate after PBO or SBI fungicide pre-treatment at 0.1, 1 or 10 nmol per bee, 2010; assay type: in vivo
# Source text: Acetone was also applied as a pre-treatment control.
# Immobile bees were scored as dead.
# [4] = tested on: honey bees (Apis mellifera); conditions: study conducted in 2008 using an identical protocol; cited from earlier work
# [5] = tau-fluvalinate topical dose series after acetone control pre-treatment
structure (smiles),measurement,setting,value
Cc1ccc(C(C)C)c(O)c1 [thymol],margin of safety of acaricide formulations,honey bees,2.0 to 7.8 fold
O=C(O)C(=O)O [oxalic acid],LD10,Apis mellifera,176.7c µg/bee
O=C(Nc1ccccc1-c1ccc(Cl)cc1)c1cccnc1Cl [boscalid],interactive effect between pre-treatment and acaricide toxicity (in words),[1],did not interact with any acaricide tested
CC(C)[C@@H](Nc1ccc(C(F)(F)F)cc1Cl)C(=O)OC(C#N)c1cccc(Oc2ccccc2)c1 (stereo partly shown) [tau-fluvalinate],LD50 of the acaricide,"[1]; 2009, topical, adult workers, pre-treatment: control, 1 µl acetone",19.8 µg per bee
same,increase in toxicity of tau-fluvalinate,"[1]; 2009 experiments, prochloraz pre-treatment",~2000 fold
same,interactive effect between pre-treatment and acaricide toxicity (in words),[1],tau-fluvalinate toxicity was transitively increased when thymol was applied as a pre-treatment; also recorded: chlorothalonil increased the toxicity of both thymol and tau-fluvalinate; also recorded: Pyraclostrobin and boscalid applied together in a blend like Pristine moderately increased the toxicity of tau-fluvalinate
same,increase in toxicity of tau-fluvalinate,[1]; amitraz pre-treatment,5 fold
same,increase in toxicity of tau-fluvalinate,[1]; fenpyroximate pre-treatment,8 fold
same,LD10,[1],3.08 µg/bee
same,LD50 of the acaricide,"[2]; 2010, topical acaricide, bees fed control 1:1 sucrose syrup",9.2 µg per bee
same,interactive effect between antimicrobial pre-treatment and acaricide toxicity (in words),[2],pretreating bees with oxytetracycline had no significant effect on the LD50 of tau-fluvalinate
same,interactive effect between SBI fungicide pre-treatment and tau-fluvalinate toxicity (in words),"[3]; 2010, SBI fungicides",an antagonistic interaction was observed at the lowest fungicide doses (0.1 nmol or approximately 0.03 µg per bee)
same,LD50 for tau-fluvalinate,"[3]; 2010, topical, pre-treatment: control (acetone)",9.0 µg per bee
same,interaction between tau-fluvalinate and PBO,[3]; PBO 10 nmol dose level,5.8 fold
same,increase in toxicity of tau-fluvalinate,[3]; pre-treated with any of the 5 fungicides or PBO at the 1 nmol dose,1.4 to 2.3 fold
same,increase in toxicity of tau-fluvalinate,[3]; pre-treated with any of the 5 fungicides or PBO at the 10 nmol dose,12 to 74 fold
same,dose-response line intercept ± SE,[3]; [5],-2.72 ± 0.24
same,dose-response line slope ± SE,[3]; [5],2.85 ± 0.26
same,LD50 for tau-fluvalinate,[4],6.75 µg per bee
"CCOC(=O)/C=C\C(=O)OCC [DEM, diethyl maleate]",interactive effect between pre-treatment and acaricide toxicity (in words),[1],did not interact with any acaricide tested
Cc1ccc(/N=C/N(C)/C=N/c2ccc(C)cc2C)c(C)c1 [amitraz],interactive effect between pre-treatment and acaricide toxicity (in words),[1],toxicity of amitraz was unchanged when bees were pre-treated with tau-fluvalinate; also recorded: oxalic acid pre-treatment reduced the toxicity of amitraz nearly four-fold
same,LD10,[1],0.92 µg/bee
same,interactive effect between antimicrobial pre-treatment and acaricide toxicity (in words),[2],this combination had no effect on acute mortality
same,margin of safety of acaricide formulations,honey bees,2.0 to 7.8 fold
CC[C@H]1OC(=O)C[C@@H](O)[C@H](C)[C@@H](O[C@@H]2O[C@H](C)[C@@H](O[C@H]3C[C@@](C)(O)[C@@H](O)[C@H](C)O3)[C@H](N(C)C)[C@H]2O)[C@@H](CC=O)C[C@@H](C)C(=O)/C=C/C(C)=C/[C@@H]1CO[C@@H]1O[C@H](C)[C@@H](O)[C@@H](OC)[C@H]1OC [tylosin],interactive effect between antimicrobial pre-treatment and acaricide toxicity (in words),[2],did not interact with any acaricide tested
